Article PMC12881681 (Molecular Pharmacology, 2025)
Read-outs that look alike come from different tables or passages of the source.

Columns and labels:
[1] = Pharmacokinetics study in mice: erlotinib pretreatment, carbazeran and 4-oxo-carbazeran; format: in vivo, BALB/c mice; details: for AUC0-∞ / Cmax / Tmax / AUC(0-inf): blood; for AUC0-∞ / Cmax / Tmax / MRT0-∞ / AUC(0-inf) / CL/F / MRT inf: carbazeran 10 mg/kg p.o.; for CL/F: read-out: Apparent oral clearance (CL/F) (converted); for MRT inf: read-out: MRT0-∞
Procedure: BALB/c mice (male, ∼8 weeks old) were purchased and housed at the Biological Resource Centre, Agency for Science, Technology and Research (A∗STAR). The experimental protocol was approved by the A∗STAR Institutional Review Board. […] Blood (12.5 μL) was drawn from the tail vein (with a needle prick) at various times (0.25, 0.5, 0.75, 1, 2, 3, 4, 6, and 8 hours) after carbazeran dosing. The blood samples were diluted 2 times with 12.5 μL of water. Acetonitrile containing the internal standard (carbazeran-d4, 4 nM in 75 μL acetonitrile and 3 nM in final sample volume of 100 μL) was added to the blood samples to precipitate proteins. […] Blank and standard calibration samples were prepared from control mice that were not treated with any chemicals. Pharmacokinetic data were analyzed by noncompartmental analysis using Phoenix WinNonlin 6.3 (Certara).
At the end of the last blood collection (8 hour post-carbazeran dosing), the mice were sacrificed. […] The tissue samples were homogenized, and a 12.5 μL aliquot of the homogenate was diluted with an equal volume of water. Acetonitrile containing the internal standard (carbazeran-d4, 4 nM in 75 μL acetonitrile and 3 nM in final sample volume of 100 μL) was added to the diluted tissue samples (25 μL) to precipitate the proteins.

human recombinant AOX1 = target: T1, human recombinant AOX1 (Homo sapiens, UniProt Q06278); assay: Time-dependent inactivation of carbazeran 4-oxidation by human recombinant AOX1; format: biochemical; details: each 10 μM (raloxifene 0.02 μM), 30-minute preincubation, vs vehicle control without preincubation
T1 construct: purchased Cypex Ltd CYP150
T1 sequence (Q06278 1-1338): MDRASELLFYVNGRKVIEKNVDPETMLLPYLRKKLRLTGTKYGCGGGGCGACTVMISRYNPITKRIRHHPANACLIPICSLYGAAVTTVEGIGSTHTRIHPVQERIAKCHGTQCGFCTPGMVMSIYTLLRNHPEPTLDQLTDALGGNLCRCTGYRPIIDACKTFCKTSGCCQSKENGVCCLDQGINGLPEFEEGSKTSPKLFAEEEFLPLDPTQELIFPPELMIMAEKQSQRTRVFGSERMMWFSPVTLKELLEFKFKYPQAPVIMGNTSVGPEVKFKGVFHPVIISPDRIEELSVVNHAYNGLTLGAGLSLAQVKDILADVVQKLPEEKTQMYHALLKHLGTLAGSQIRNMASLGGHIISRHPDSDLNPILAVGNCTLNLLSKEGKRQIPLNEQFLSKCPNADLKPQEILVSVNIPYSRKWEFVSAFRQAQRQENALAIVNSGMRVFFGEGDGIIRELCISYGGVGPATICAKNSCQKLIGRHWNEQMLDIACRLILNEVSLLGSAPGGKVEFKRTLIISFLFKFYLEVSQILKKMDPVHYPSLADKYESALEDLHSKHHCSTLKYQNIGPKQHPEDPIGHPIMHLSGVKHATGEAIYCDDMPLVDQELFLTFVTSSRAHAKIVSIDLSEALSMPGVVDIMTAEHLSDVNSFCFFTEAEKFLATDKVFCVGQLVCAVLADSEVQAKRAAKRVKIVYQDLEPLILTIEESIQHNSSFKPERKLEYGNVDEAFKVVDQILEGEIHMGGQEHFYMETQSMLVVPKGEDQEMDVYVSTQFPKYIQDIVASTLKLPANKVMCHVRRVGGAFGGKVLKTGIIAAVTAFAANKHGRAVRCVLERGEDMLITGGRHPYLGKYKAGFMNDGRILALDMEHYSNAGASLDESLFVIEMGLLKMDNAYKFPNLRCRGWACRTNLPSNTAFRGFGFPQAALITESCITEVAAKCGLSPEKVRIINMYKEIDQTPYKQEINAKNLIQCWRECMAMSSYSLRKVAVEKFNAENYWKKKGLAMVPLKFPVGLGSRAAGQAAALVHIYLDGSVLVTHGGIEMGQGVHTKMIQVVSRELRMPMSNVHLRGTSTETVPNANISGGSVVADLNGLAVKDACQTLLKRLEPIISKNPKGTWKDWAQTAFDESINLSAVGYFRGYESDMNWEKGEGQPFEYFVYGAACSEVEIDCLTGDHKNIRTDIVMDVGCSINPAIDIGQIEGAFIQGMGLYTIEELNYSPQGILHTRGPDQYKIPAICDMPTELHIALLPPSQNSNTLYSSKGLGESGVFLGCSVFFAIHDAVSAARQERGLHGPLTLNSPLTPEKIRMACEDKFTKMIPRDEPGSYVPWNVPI
Procedure: (§1) Carbazeran 4-oxidation and O^6-benzylguanine 8-oxidation were deployed as AOX1-selective catalytic markers.[27] The assay conditions (amount of cytosolic protein, incubation time, and substrate concentration) for carbazeran 4-oxidation catalyzed by human recombinant AOX1 and human/rat/mouse liver cytosols were optimized previously.[7]^,[25]
(§2) Enzymatic reaction was initiated by adding human liver cytosol (100 μg). After the specified preincubation duration, an aliquot (10 μL) of the preincubation mixture was transferred to 190 μL of a prewarmed (for 3 minutes at 37 °C) secondary incubation mixture (total volume of 200 μL) containing potassium phosphate buffer and carbazeran (15 μM) or O^6-benzylguanine (150 μM), which yielded a 20-fold dilution of the primary incubation mixture. The secondary incubation mixture was incubated for 5 minutes at 37 °C before the enzymatic reaction was terminated with 200 μL of ice-cold acetonitrile containing carbazeran-d4 (2.5 nM final concentration; internal standard for 4-oxo-carbazeran) or tolbutamide (25 nM final concentration; internal standard for 8-oxo-O^6-benzylguanine). Each sample was immediately mixed by vortex, placed on ice, centrifuged at 16,000g for 15 minutes at 4 °C and stored at –30 °C until ultra-high performance liquid chromatography–tandem mass spectrometry (UPLC-MS/MS) analysis. For enzyme inactivation assays involving rat and mouse liver cytosol and recombinant AOX1 assays, the experimental conditions were similar to those of human liver cytosol, except that the amount of cytosolic protein was 200 μg (rat) and 150 μg (mouse), respectively, and the incubation time of the secondary incubation mixture was 60 minutes. For the recombinant AOX1 enzyme assay, the amount of enzyme was 100 μg, the incubation time of the secondary incubation mixture was 15 minutes, and the total volume of the primary and secondary incubation mixtures was reduced to 100 μL.
An aliquot (10 μL) of the primary incubation mixture was transferred to a secondary incubation mixture containing carbazeran (15 μM) and incubated for (A) 180, (B) 5, or (C, D) 120 minutes.

[2] = target: T2, human liver cytosolic AOX1 (Homo sapiens, UniProt Q06278); assay: Effects of a competing AOX1 substrate and a competitive AOX1 inhibitor on AOX1 inactivation; format: biochemical; set-up: Enzymatic reaction was initiated by adding human liver cytosol (100 μg); tissue Corning, Inc. (Gentest brand) 452115; host or cells: human liver cytosol, pool of 150 donors; details: 120 and 240 μM, human liver cytosol (data not shown)
T2 sequence (Q06278 1-1338): T1 sequence (Q06278 1-1338)
Procedure: The molar ratio of O^6-benzylguanine (120, 240, and 480 μM) to 3-vinylerlotinib (10 μM) was 12, 24, and 48, O^6-benzylguanine to 4′-methylerlotinib (3 μM) was 40, 80, and 160, and O^6-benzylguanine to 2-methylerlotinib (1 μM) was 120, 240, and 480, respectively. […] Each standard incubation mixture was subjected to the same procedures as described in Enzyme Inactivation Experiments. The residual AOX1 enzyme activity was determined by the carbazeran 4-oxidation or O^6-benzylguanine 8-oxidation assay.

[3] = target: T2, human liver cytosolic AOX1; assay: Enzyme inactivation of human liver cytosolic AOX1-mediated carbazeran 4-oxidation
Procedure: as §1, §2
Preliminary experiments were performed to optimize the incubation time and concentration of an inactivator to ensure a log-linear decrease in enzyme activity over time and that the kobs versus inactivator concentration plot reaches a plateau for the determination of the kinact value. The observed first-order rate constant for inactivation (kobs), maximal inactivation rate constant (kinact), half-maximal inactivation concentration (KI), and the time required for half of the enzyme molecules to be inactivated (t1/2) were calculated as described in our previous publication.[28]

[4] = target: T2, human liver cytosolic AOX1; assay: Partition ratio determination (titration, human liver cytosol); format: biochemical; set-up: Enzymatic reaction was initiated by adding human liver cytosol (100 μg); tissue Corning, Inc. (Gentest brand) 452115; host or cells: human liver cytosol, pool of 150 donors
Procedure: The enzyme kinetic experiments were conducted as described above. The incubation was allowed to proceed until saturation of enzyme has been reached (6 or 18 minutes, as specified in each figure legend). Carbazeran 4-oxidation was plotted against the ratio of inactivator concentration to AOX1 protein concentration in the incubation mixture of 200 μL. The specific lot of human liver cytosol (#38292) used in this study contained 1.05 ± 0.01 pmol/μL (mean ± SD) of AOX1 protein, as assessed by capillary nanoproteomic immunoassay.[27] The turnover number was the extrapolation of the intercept of the 2 linear regression lines to the x-axis, which was determined by solving the 2 linear regression equations. The partition ratio was calculated by subtracting the turnover number by 1, assuming 1:1 stoichiometry between the inactivator and the enzyme.[29]

[5] = target: T2, human liver cytosolic AOX1; format: biochemical; set-up: Enzymatic reaction was initiated by adding human liver cytosol (100 μg); tissue Corning, Inc. (Gentest brand) 452115; host or cells: human liver cytosol, pool of 150 donors; details: potassium ferricyanide 2 mM, 0 or 6 min preincubation
Procedure: The residual AOX1 enzyme activity was determined by the carbazeran 4-oxidation assay.
A test chemical at a concentration described above was incubated with human liver cytosol (100 μg protein) at 37 °C for 0 or 6 minutes. […] After 10-minute incubation, an aliquot (50 μL) of the […] (total volume of 200 μL) containing potassium phosphate buffer and carbazeran (15 μM), which yielded a 4-fold dilution of the secondary incubation mixture. The residual AOX1 enzyme activity was determined as described above.

[6] = erlotinib 100 mg/kg p.o. 2 h before
[7] = male, BALB/c, mouse, whole blood, po, 10 mg/kg, Control (vehicle pretreatment)
[8] = male, BALB/c, mouse, whole blood, po, 10 mg/kg, erlotinib 100 mg/kg p.o. 2 h before
[9] = human liver cytosol, carbazeran 4-oxidation

SMILES: CCNC(=O)OC1CCN(c2n[nH]c(=O)c3cc(OC)c(OC)cc23)CC1 [4-Oxo-Carbazeran, 4-oxo-carbazeran]
- Ratio of AUC0-∞ (metabolite) to AUC0-∞ (parent) ([1]; Control (vehicle pretreatment)): 0.31 ± 0.06
- Ratio of AUC0-∞ (metabolite) to AUC0-∞ (parent) ([1]; Control (vehicle pretreatment), listed as 4-oxo-carbazeran): 0.31
- AUC0-∞ ([1]; Control (vehicle pretreatment)): 0.78 ± 0.23 µM·h
- Cmax ([1]; Control (vehicle pretreatment)): 920 ± 390 nM
- Tmax ([1]; Control (vehicle pretreatment)): 19.2 ± 7.2 min
- AUC0-∞ [1, 6]: 0.027 ± 0.009∗∗∗∗ μM.h
- Cmax [1, 6]: 8 ± 3 nM
- Tmax [1, 6]: 27.6 ± 16.2 min
- MRT0-∞ ([1]; Control (vehicle pretreatment)): 0.98 ± 0.19 h
- MRT0-∞ [1, 6]: 8.98 ± 8.73∗ h
- Ratio of AUC0-∞ (metabolite) to AUC0-∞ (parent) ([1]; erlotinib 100 mg/kg p.o. 2 h before carbazeran): 0.007 ± 0.003∗∗∗∗

SMILES: CCNC(=O)OC1CCN(c2nncc3cc(OC)c(OC)cc23)CC1 [Carbazeran, carbazeran]
- AUC(0-inf) [1, 7]: 2.52 ± 0.46 µM·h
- Cmax [1, 7]: 3470 ± 1390 nM
- AUC(0-inf) [1, 8]: 4.6 ± 2.02 µM·h
- Cmax [1, 8]: 3530 ± 2180 nM
- CL/F [1, 7]: 188 mL/min/kg
- MRT inf [1, 7]: 1.32 ± 0.44 h
- CL/F [1, 8]: 114 mL/min/kg
- MRT inf [1, 8]: 2.32 ± 0.76 h
- Tmax ([1]; male, BALB/c, mouse, whole blood, po, Control (vehicle pretreatment), read-out: Tmax): 17.4 ± 5.4 min

SMILES: Oc1cc2ncnc(Nc3ccc(F)c(Cl)c3)c2cc1OCCCN1CCOCC1 [O-desmethylgefitinib]
- decrease in carbazeran 4-oxidation (human recombinant AOX1): did not decrease

SMILES: COc1cc2ncnc(Nc3ccc(F)c(Cl)c3)c2cc1O [O-desmorpholinopropylgefitinib]
- decrease in carbazeran 4-oxidation (human recombinant AOX1): did not decrease

SMILES: Nc1nc(OCc2ccccc2)c2nc[nH]c2n1 [O^6-benzylguanine]
- effect of O^6-benzylguanine alone on carbazeran 4-oxidation [2]: did not affect the activity

SMILES: CCc1cccc(Nc2ncnc3cc(OCCOC)c(OCCOC)cc23)c1 [Tetrahydroerlotinib, tetrahydroerlotinib]
- KI ([3]; half-maximal inactivation concentration, human liver cytosol, carbazeran 4-oxidation): No inactivation
- kinact ([3]; human liver cytosol 100 μg, carbazeran 15 μM, 37 °C): No inactivation
- decrease in carbazeran 4-oxidation ([3]; human liver cytosol, 10 μM (raloxifene 0.02 μM), 30-minute preincubation): did not decrease
- decrease in carbazeran 4-oxidation ([3]; human liver cytosol, 50 μM, 120 minutes preincubation): did not decrease
- Inactivation t1/2 [3, 9]: No inactivation
- kinact/KI [3, 9]: No inactivation
- KI,u ([3]; unbound, KI,u = fu × KI, fu at 10 μM in human liver cytosol): No inactivation
- Turnover Number ([4]; human liver cytosol): No inactivation
- Partition Ratio ([4]; turnover number minus 1): No inactivation
- effect of coincubation or postincubation with potassium ferricyanide on AOX1 inactivation [5]: not changed
